Measured values reported in US7138361B2, “Herbicidal heterocycles” (E. I. du Pont de Nemours and Company, priority 2000, dated 2006).

Columns and labels:
Assay type in all cases: in vivo
[1] = system: Surinam grass (Brachiaria decumbens); assay: Test B postemergence
Summary of the method: (§1)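 Pre: seeded pots sprayed, chemical in non-phytotoxic solvent/surfactant mix. Post: plants 2–18 cm, 1–4 leaf, same formulation. Greenhouse 13–15 d; visual % control vs untreated, 0–100 scale.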

[2] = system: barnyardgrass (Echinochloa crus-galli); assay: Test B postemergence
Summary of the method: as §1

[3] = system: blackgrass (Alopecurus myosuroides); assay: Test B postemergence
Summary of the method: as §1

[4] = system: cocklebur (Xanthium strumarium); assay: Test B postemergence
Summary of the method: as §1

[5] = system: corn (Zea mays); assay: Test B postemergence
Summary of the method: as §1

[6] = system: crabgrass (Digitaria sanguinalis); assay: Test B postemergence
Summary of the method: as §1

[7] = system: giant foxtail (Setaria faberii); assay: Test B postemergence
Summary of the method: as §1

[8] = system: lambsquarters (Chenopodium album); assay: Test B postemergence
Summary of the method: as §1

[9] = system: morning glory (Ipomoea hederacea); assay: Test B postemergence
Summary of the method: as §1

[10] = system: pigweed (Amaranthus retroflexus); assay: Test B postemergence
Summary of the method: as §1

[11] = system: velvetleaf (Abutilon theophrasti); assay: Test B postemergence
Summary of the method: as §1

[12] = system: wheat (Triticum aestivum); assay: Test B postemergence
Summary of the method: as §1

[13] = system: wild oat (Avena fatua); assay: Test B postemergence
Summary of the method: as §1

[14] = system: Surinam grass (Brachiaria decumbens); assay: Test B preemergence
Summary of the method: as §1

[15] = system: barnyardgrass (Echinochloa crus-galli); assay: Test B preemergence
Summary of the method: as §1

[16] = system: cocklebur (Xanthium strumarium); assay: Test B preemergence
Summary of the method: as §1

[17] = system: corn (Zea mays); assay: Test B preemergence
Summary of the method: as §1

[18] = system: crabgrass (Digitaria sanguinalis); assay: Test B preemergence
Summary of the method: as §1

[19] = system: giant foxtail (Setaria faberii); assay: Test B preemergence
Summary of the method: as §1

[20] = system: lambsquarters (Chenopodium album); assay: Test B preemergence
Summary of the method: as §1

[21] = system: morning glory (Ipomoea hederacea); assay: Test B preemergence
Summary of the method: as §1

[22] = system: pigweed (Amaranthus retroflexus); assay: Test B preemergence
Summary of the method: as §1

[23] = system: rice (Oryza saliva); assay: Test B preemergence
Summary of the method: as §1

[24] = system: velvetleaf (Abutilon theophrasti); assay: Test B preemergence
Summary of the method: as §1

[25] = system: smallflower flatsedge (Cyperus difformis); assay: Test C flooded paddy test; details: for Flatsedge plant response rating: Flooded Paddy, scale 0 to 100, 0 no effect, 100 complete control; for Plant response rating, Flatsedge: flooded paddy test, scale 0 to 100 (0 no effect, 100 complete control)
Summary of the method: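 Rice and three paddy weeds were grown to the 2-leaf stage under flooded conditions, then treated and kept in a greenhouse for 12–14 days. Response was rated visually against untreated controls on a 0–100 scale, where 100 is complete control.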

[26] = Rate 62 g/ha, scale 0 to 100, 0 no effect, 100 complete control
[27] = Rate 125 g/ha, scale 0 (no effect) to 100 (complete control), 13 to 15 days
[28] = Rate 250 g/ha, scale 0 (no effect) to 100 (complete control), 13 to 15 days
[29] = Rate 500 g/ha, scale 0 to 100, 0 is no effect, 100 is complete control, 13 to 15 days
[30] = Preemergence, Rate 500 g/ha, scale 0 to 100, 0 no effect, 100 complete control
[31] = preemergence, Rate 62 g/ha, scale of 0 to 100 where 0 is no effect and 100 is complete control, 13 to 15 days
[32] = preemergence, Rate 125 g/ha, scale of 0 to 100 where 0 is no effect and 100 is complete control, 13 to 15 days
[33] = preemergence, Rate 250 g/ha, scale 0 to 100, 0 no effect, 100 complete control

Cc1ccc(N2CCC(n3ccc(C(C)(C)C)n3)C2=O)cc1OCCCl (stereo not shown) [Compound 109]
Plant response rating, Surinam grass [1, 26]: 0
Plant response rating, Surinam grass [1, 27]: 0
Plant response rating, Surinam grass [1, 28]: 20
Plant response rating, Surinam grass [1, 29]: 0
Plant response rating, Barnyardgrass [2, 26]: 0
Plant response rating, Barnyardgrass [2, 27]: 0
Plant response rating, Barnyardgrass [2, 28]: 0
Plant response rating, Barnyardgrass [2, 29]: 0
Plant response rating, Blackgrass [3, 26]: 0
Plant response rating, Blackgrass [3, 27]: 0
Plant response rating, Blackgrass [3, 28]: 0
Plant response rating, Blackgrass [3, 29]: 0
Plant response rating, Cocklebur [4, 26]: 60
Plant response rating, Cocklebur [4, 27]: 40
Plant response rating, Cocklebur [4, 28]: 70
Plant response rating, Cocklebur [4, 29]: 90
Plant response rating, Corn [5, 26]: 0
Plant response rating, Corn [5, 27]: 0
Plant response rating, Corn [5, 28]: 0
Plant response rating, Corn [5, 29]: 0
Plant response rating, Crabgrass [6, 26]: 0
Plant response rating, Crabgrass [6, 27]: 0
Plant response rating, Crabgrass [6, 28]: 0
Plant response rating, Crabgrass [6, 29]: 0
Plant response rating, Foxtail, Giant [7, 26]: 0
Plant response rating, Foxtail, Giant [7, 27]: 0
Plant response rating, Foxtail, Giant [7, 28]: 20
Plant response rating, Foxtail, Giant [7, 29]: 0
Plant response rating, Lambsquarters [8, 26]: 80
Plant response rating, Lambsquarters [8, 28]: 90
Plant response rating, Lambsquarters [8, 29]: 90
Plant response rating, Morningglory [9, 26]: 90
Plant response rating, Morningglory [9, 28]: 100
Plant response rating, Morningglory [9, 29]: 100
Plant response rating, Pigweed [10, 26]: 50
Plant response rating, Pigweed [10, 28]: 60
Plant response rating, Pigweed [10, 29]: 90
Plant response rating, Velvetleaf [11, 26]: 0
Plant response rating, Velvetleaf [11, 28]: 80
Plant response rating, Velvetleaf [11, 29]: 80
Plant response rating, Wheat [12, 26]: 0
Plant response rating, Wheat [12, 28]: 0
Plant response rating, Wheat [12, 29]: 0
Plant response rating, Wild Oat [13, 26]: 0
Plant response rating, Wild Oat [13, 28]: 0
Plant response rating, Wild Oat [13, 29]: 0
Plant response rating, Surinam grass [14, 30]: 100
Plant response rating, Surinam grass [14, 31]: 20
Plant response rating, Surinam grass [14, 32]: 50
Plant response rating, Surinam grass [14, 33]: 90
Plant response rating, Barnyardgrass [15, 30]: 100
Plant response rating, Barnyardgrass [15, 31]: 0
Plant response rating, Barnyardgrass [15, 32]: 30
Plant response rating, Barnyardgrass [15, 33]: 50
Plant response rating, Cocklebur [16, 30]: 0
Plant response rating, Cocklebur [16, 31]: 0
Plant response rating, Cocklebur [16, 32]: 0
Plant response rating, Cocklebur [16, 33]: 0
Plant response rating, Corn [17, 30]: 0
Plant response rating, Corn [17, 31]: 0
Plant response rating, Corn [17, 32]: 0
Plant response rating, Corn [17, 33]: 0
Plant response rating, Crabgrass [18, 30]: 100
Plant response rating, Crabgrass [18, 31]: 100
Plant response rating, Crabgrass [18, 32]: 100
Plant response rating, Crabgrass [18, 33]: 100
Plant response rating, Foxtail, Giant [19, 30]: 50
Plant response rating, Foxtail, Giant [19, 31]: 20
Plant response rating, Foxtail, Giant [19, 32]: 0
Plant response rating, Foxtail, Giant [19, 33]: 100
Plant response rating, Lambsquarters [20, 30]: 100
Plant response rating, Lambsquarters [20, 31]: 100
Plant response rating, Lambsquarters [20, 32]: 100
Plant response rating, Lambsquarters [20, 33]: 100
Plant response rating, Morningglory [21, 30]: 0
Plant response rating, Morningglory [21, 31]: 0
Plant response rating, Morningglory [21, 32]: 0
Plant response rating, Morningglory [21, 33]: 0
Plant response rating, Pigweed [22, 30]: 100
Plant response rating, Pigweed [22, 31]: 100
Plant response rating, Pigweed [22, 32]: 100
Plant response rating, Pigweed [22, 33]: 100
Plant response rating, Rice [23, 30]: 0
Plant response rating, Rice [23, 31]: 0
Plant response rating, Rice [23, 32]: 0
Plant response rating, Rice [23, 33]: 0
Plant response rating, Velvetleaf [24, 30]: 70
Plant response rating, Velvetleaf [24, 31]: 0
Plant response rating, Velvetleaf [24, 32]: 0
Plant response rating, Velvetleaf [24, 33]: 60
Flatsedge plant response rating ([25]; Rate 250 g/ha): 80
Flatsedge plant response rating ([25]; Rate 500 g/ha): 100
Plant response rating, Flatsedge ([25]; Rate 62 g/ha): 40
Plant response rating, Flatsedge ([25]; Rate 125 g/ha): 50
